{"source": "paper PMC8778264", "about": "(Nanomaterials, 2022)", "type_in_all_cases": "cell-based", "key": {"[1]": {"system": "CRL-1739 cells", "experiment": "Fluorescence microscopy (Hoechst 33342)", "method": "(§1) The control group comprised untreated cells and fresh culture medium without test compounds. CRL-1739 cells were seeded to a 5 × 10^4 cell density in 24-well plates. […] After the administration of formulations, cells were washed with PBS three times. The cells were trypsinized and suspended in fresh PBS with 10% fetal bovine serum.\nAfter treatment with the formulations, CRL-1739 cells were fixed and stained with Hoechst 33342 (blue). The cellular uptake of formulations was performed with a Nikon eclipse fluorescence microscope (Nikon, Japan) at a magnification of 1000×. The stained cell nuclei were evaluated."}, "[2]": {"system": "CRL-1739 cells", "experiment": "In vitro cytotoxicity (MTT assay)", "details": "48 h treatment", "method": "The cell line was cultured in DMEM supported with 10% fetal bovine serum, 0.5 mg/mL glutamine/penicillin streptomycin at 37 °C and 5% CO2. […] Ninety-six well flat-bottom plates and […] DMEM were used for the seeding procedure. […] Then, 100 μL of MTT solution (5 mg/mL) was put into each well and incubated at 37 °C. The culture medium was removed. Then, 200 μL of dimethysulfoxide was added to obtain the dissolution of the MTT formazan crystals. The absorbance was read at 570 nm using a microplate reader."}, "[3]": {"system": "CRL-1739 cells", "experiment": "Cellular uptake and cell apoptosis analysis by flow cytometry (Annexin V-FITC / propidium iodide)", "details": "0.05 and 2 mg/mL, 24 h", "method": "as §1\nThe suspended formulations were incubated with 5 μL of Annexin V-FITC and 5 μL of propidium iodide for 15 min at room temperature in the dark. The cell suspensions were analyzed by using Guava easy Cyte in terms of cellular uptake."}}}
{"smiles": "Cc1ccc(NC(=O)c2ccc(CN3CCN(C)CC3)cc2)cc1Nc1nccc(-c2cccnc2)n1", "note": "[IMT, Imatinib]", "values": [{"measurement": "IMT location and distribution inside cells (fluorescence)", "setting": "[1]", "value": "low fluorescence when compared to F16 and F16-IMT"}, {"measurement": "cell viability", "setting": "[2]", "value": 70.5, "unit": "%"}, {"measurement": "cellular uptake (fluorescence intensity, flow cytometry)", "setting": "[3]", "value": "lower fluorescence intensity than cells administered with F16 and F16-IMT"}]}
